Test results published in patent publication US6096734A, “Photosensitizers for sensitizing cells” (The Secretary of State for Defence in Her Britannic …, priority 1993, dated 2000).
Where two headings read alike, the source gives them in different places.

Legend:
MS-2 fibrosarcoma = assay: Phototherapeutic studies: tumour response to PDT (visual observation, electron microscopy); format: in vivo, female Balb/c mice
Description: (§1) In this investigation female Balb/c mice 20-22 g bearing a MS-2 fibrosarcoma intramuscularly implanted into the hind right leg were used as an animal model. On the 7th day after transplantation when the tumour diameter was 0.6-0.8 cm and no spontaneous necrosis could be detected, the mice were injected with 1.2 or 2.4 mg/kg ZnODPc incorporated into Cremophor emulsions. The preparation and characterisation of such emulsions has been described by L. Polo et al Cancer Lett. 66: 217-223, 1992. The amount of injected ZnODPc was estimated by diluting a known aliquot of the phthalocyanine-containing emulsion into THF and reading the absorbance at 701 nm (molar absorption coefficient 2.01×10^5 dm^3 mol^-1 cm^-1).
The tumour bearing mice were injected with 2.4 mg/kg ZnODPc and after 24 h were irradiated by 600-700 nm light which was isolated from the emission of a quartz-halogen lamp (Teclas, Lugano Switzerland) by optical filtering. The light beam was focussed into a bundle of optical fibres, whose tip was positioned at a 1 cm distance from the tumour surface. The lamp was operated at 230 mW/cm^2 for a total delivered light dose of 400 J/cm^2.
The tumour response was analyzed by visual observation, as well as by electron microscopy studies on tumour specimens taken at 6 h and 24 h after the end of the PDT. The procedure for the preparation of the samples and ultra structural determinations was performed as described by Milanesi et al. Br. J. Cancer 61: 846-850, 1990.
At the same time endocytoplasmic vacuolisation 6 is frequently observed with some completely necrotic cells and loss of the organised tissue structure.

[1] = Spectroscopic properties of ZnODPc (absorption, fluorescence); format: physicochemical
Description: The fluorescence emission maximum, excited at 703 nm is at 712 nm.
as §1

[2] = Singlet oxygen generation (luminescence at 1270 nm); format: physicochemical
Description: (§2) Triplet state studies were carried out using laser flash photolysis. Samples were prepared in a 1% pyridine in toluene solution; by preparing such a solution then it is believed that aggregation of the phthalocyanine cores is avoided. The solution was prepared so that an optical density of 0.2-0.3 at the excitation wavelength was obtained. Samples were irradiated by an excimer pumped dye laser at 355 nm and the transients monitored with the use of a quartz halogen lamp. Triplet quantum yields were calculated using ZnTPP and ZnPc as standards. The triplet quantum yield is the quantum yield of conversion from the excited singlet state to the triplet state.
The generation of singlet oxygen by the phthalocyanines was also studied. The method of detection of the singlet oxygen involved measuring the intensity of luminescence at 1270 nm, corresponding to the forbidden transition from the excited singlet back down to the ground state, with a liquid nitrogen cooled germanium detector. Aerated samples were irradiated with the same system as described for the triplet state studies. Standards used were ZnTPP, ZnPc and anthracene.
The data in Table 3 are means of no less than four independent runs, except for compounds 8 and 9 were run once.
The properties of the decomposition products arising from irradiation of the phthalocyanines were investigated.

[3] = Triplet state studies by laser flash photolysis; format: physicochemical; conditions: 1% pyridine in toluene, excitation 355 nm; for Triplet Quantum Yield: means of no less than four runs, compounds 8 and 9 run once
Description: as §2
Compound example 10 is unsubstituted zinc phthalocyanine (ZnPc); this is included in the Table for means of comparison.
The data in Table 2 are means of no less than four independent runs, except for compounds 8 and 9 which were run once.

[4] = parameters: species or system female Balb/c mice; conditions: mouse, in vivo
Description: In this investigation female Balb/c mice 20-22 g bearing a MS-2 fibrosarcoma intramuscularly implanted into the hind right leg were used as an animal model. On the 7th day after transplantation when the tumour diameter was 0.6-0.8 cm and no spontaneous necrosis could be detected, the mice were injected with 1.2 or 2.4 mg/kg ZnODPc incorporated into Cremophor emulsions. The preparation and characterisation of such emulsions has been described by L. Polo et al Cancer Lett. 66: 217-223, 1992. The amount of injected ZnODPc was estimated by diluting a known aliquot of the phthalocyanine-containing emulsion into THF and reading the absorbance at 701 nm (molar absorption coefficient 2.01×10^5 dm^3 mol^-1 cm^-1). The tumour-bearing mice were injected with 1.2 mg/kg ZnODPc in the tail vein. At 3 hours and 24 hours after administration, groups of three mice were sacrificed by prolonged exposure to ether vapours, the tumour and selected normal tissues (muscle, skin, liver and kidneys) were excised, washed with phosphate buffered saline (PBS) and assayed for the phthalocyanine content by spectrofluorimetric analysis after chemical extraction, see Reddi et al Br. J. Cancer 61: 407-411, 1990; typically a weighted amount of tissue was homogenized in 3 ml of 2% aqueous sodium dodecyl sulphate (SDS); the homegenate was incubated for 1 hour at room temperature under gentle magnetic stirring and 1 ml of the suspension was added with 2 ml of THF, centrifuged at 10 mins at 3000 rpm; the supernatant was collected and its fluorescence intensity was determined in the 670-770 nm interval (excitation at 650 nm). The fluorescence intensity was converted into ZnODPc concentration by interpolation with a calibration plot. Samples of blood were taken from the sacrificed animals, centrifuged to separate the erythocytes and the serum (50 μl) thus collected was diluted with 2% aqueous SDS (700 μl), added with 1.5 ml of THF and centrifuged for 10 mins at 3000 rpm. The ZnODPc concentration in the supernatant was determined by fluorescence spectroscopy as specified above. Special attention was focussed on the phthalocyanine content in the muscle which is the peritumoural tissue in the animal model exemplified in this study and the skin because of the frequent onset of persistent cutaneous photosensitivity in PDT patients. The determination of ZnODPc accumulation in liver and kidneys can provide useful information on the modality of its elimination from the organism. Analyses were carried out at 3 h intervals after photosensitizer injection and at 24 h which is generally considered to be the usual time interval for PDT treatment.

[5] = ethanolic solution; Valduga et al 1988; cited from earlier work
[6] = irradiation conditions described, in words
[7] = Table 3, aerated samples, same system as triplet studies (1% pyridine in toluene), means of no less than four runs, compounds 8 and 9 run once

CCCCCCCCCCc1ccc(CCCCCCCCCC)c2c1C1=NC2=Nc2c3c(CCCCCCCCCC)ccc(CCCCCCCCCC)c3c3[n]2[Zn][n]2c(c4c(CCCCCCCCCC)ccc(CCCCCCCCCC)c4c2=NC2=NC(=N3)c3c(CCCCCCCCCC)ccc(CCCCCCCCCC)c32)=N1 [Example 1, 1,4,8,11,15,18,22,25-octakis-decylphthalocyaninato-zinc]
tumour growth delay compared with untreated tumour-bearing mice (MS-2 fibrosarcoma; 2.4 mg/kg, irradiated 24 h post-injection, 600-700 nm, 400 J/cm^2): significant delay in tumour growth
damage of blood vessels (electron microscopy) (MS-2 fibrosarcoma; 6 h after irradiation, FIG. 1): less heavily damaged
damage of tumour cells (electron microscopy) (MS-2 fibrosarcoma; 6 h after irradiation, FIG. 1): extensive damage of tumour cells
overall appearance of the tumour (MS-2 fibrosarcoma; 24 h after irradiation): deeply haemorrhagic
tissular damage (electron microscopy) (MS-2 fibrosarcoma; 24 h after irradiation, FIG. 2): remarkably more extensive at 24 h after irradiation
damage of cell nuclei (MS-2 fibrosarcoma; in words): extensive damage of cell nuclei
tumour damage upon photoexcitation with red light (MS-2 fibrosarcoma; in words): sufficient for inducing an efficient tumour damage
damage of blood capillaries (MS-2 fibrosarcoma; [6]): appreciable damage of blood capillaries
main target of photosensitization (MS-2 fibrosarcoma; [6]): malignant cells appear to be the main target
molar absorption coefficient ([1]; THF, 701 nm): 2.01×10^5 dm^3 mol^-1 cm^-1
absorption maximum ([1]; cyclohexane): 703 nm
molar absorption coefficient (ε) at the absorption maximum ([1]; cyclohexane, 703 nm): approximately 2.3×10^5 dm^3 mol^-1 cm^-1
fluorescence emission maximum ([1]; cyclohexane, excited at 703 nm): 712 nm
Singlet Oxygen Quantum Yield [2, 7]: 0.73
Singlet Oxygen Quantum Yield ([2]; toluene/pyridine solution): 0.73±0.06
Triplet Lifetime [3]: 50 μs
Triplet Quantum Yield [3]: 0.67
accumulation in kidneys [4]: negligible amounts
liver concentrations [4]: comparatively low
presence in cutaneous districts (skin) [4]: essentially no phthalocyanine is present
recovery from the peritumoural tissue [4]: No detectable amount
Recovery, Kidney ([4]; iv, 1.2 mg/kg, 3 h): 0.066 ± 0.008 μg of dye/g of tissue
Recovery, Liver ([4]; iv, 1.2 mg/kg, 3 h): 0.278 ± 0.053 μg of dye/g of tissue
Recovery, Serum ([4]; iv, 1.2 mg/kg, 3 h): 0.436 ± 0.324
Recovery, Tumour ([4]; iv, 1.2 mg/kg, 3 h): 0.073 μg of dye/g of tissue
Recovery, Kidney ([4]; iv, 1.2 mg/kg, 24 h): 0.O05 ± 0.002 μg of dye/g of tissue
Recovery, Liver ([4]; iv, 1.2 mg/kg, 24 h): 0.673 ± 0.140 μg of dye/g of tissue
Recovery, Serum ([4]; iv, 1.2 mg/kg, 24 h): 0.042 ± 0.015
Recovery, Skin ([4]; iv, 1.2 mg/kg, 24 h): 0.008 ± 0.001 μg of dye/g of tissue
Recovery, Tumour ([4]; iv, 1.2 mg/kg, 24 h): 0.132 ± 0.022 μg of dye/g of tissue

CCCCCCCCCCc1ccc(CCCCCCCCCC)c2c1C1=NC2=Nc2c3c(CCCCCCCCCC)ccc(CCCCCCCCCC)c3c3[n]2[Zn][n]2c(c4c(CCCCCCCCCO)ccc(CCCCCCCCCO)c4c2=NC2=NC(=N3)c3c(CCCCCCCCCC)ccc(CCCCCCCCCC)c32)=N1 [Example 9, 1,4-Bis (9-Hydroxynonyl)-8,11,15,18,22,25-Hexadecylphthalocyaninato-Zinc]
Singlet Oxygen Quantum Yield [2, 7]: 0.80
Triplet Quantum Yield [3]: 0.70

[Zn+2].c1ccc2c(c1)-c1nc-2nc2[n-]c(nc3nc([n-]c4nc(n1)-c1ccccc1-4)-c1ccccc1-3)c1ccccc21 [Example 10, unsubstituted zinc phthalocyanine, reference compound]
Singlet Oxygen Quantum Yield [2, 7]: 0.50
Triplet Quantum Yield [3]: 0.45
Singlet Oxygen Quantum Yield [5]: approximately 0.4
